# Key:
# [1] = continuous subcutaneous infusion, 2-5 mg/hour; cited from earlier work
# [2] = i.v., s.c., i.m., rectal, sublingual or intranasal route; cited from earlier work
# [3] = activity compared with APO; conditions: greater than that of APO
# Description: For this reason, when said compounds are given at suitable doses over 24 hours, effects which are rather more beneficial than those of APO are obtained.
# [4] = toxicity compared with APO
# [5] = accelerated stability test of the patch formulation; format: physicochemical; conditions: with antioxidant (sodium metabisulphite), 15 days at 40° C. and 75% RH
# [6] = half-life compared with APO
# [7] = in vitro cell permeation study with guinea-pig skin (Type III patch); format: in vitro ADME
# Description: Then, three particular non-limiting examples of the pharmaceutical composition used to form the matrix of a Type III patch will be illustrated (FIG. 3). The Type III patch, containing a matrix made up of these three types of formulations, will then be “tested” on guinea-pig skin, to analyse the permeation of the active principle, both with regard to the accumulation of active principle over 48 hours (FIG. 4) and with regard to the flow (also over 48 hours, FIG. 5).
Compound,local side effect at the infusion site [1],latent period (attack) [2],activity relative to APO [3] [times],toxicity relative to APO [4],chemical stability in the formulation of the patch [5],half-life relative to APO [6],skin permeability [7]
CN1CCc2cccc3c2[C@H]1Cc1ccc(O)c(O)c1-3 [Apomorphine],subcutaneous granulomas form around the infusion site,about 15 ′,–,–,–,–,–
"CCCN1CCc2cccc3c2[C@H]1Cc1ccc(O)c(O)c1-3.Cl [Compound (1), R(−)-propylnorapomorphine hydrochloride]",–,–,10,lower,demonstrated,greater,sufficient
"CCCN1CCc2cccc3c2[C@@H]1Cc1ccc(O)c(O)c1-3.Cl [Compound (2), S(+)-propylnorapomorphine hydrochloride]",–,–,10,lower,–,greater,–
